The values that follow come from article doi:10.1101/2021.10.07.463234v2 (biorxiv, 2021).

Structures can show the parent of a compound that is named as a salt.

The target of the first assay is T1, SARS-CoV-2 Mac1 (Severe acute respiratory syndrome coronavirus 2, UniProt P0DTD1). As to the kind of experiment: biochemical. Particulars: read-out: %inhibition.
In the case of `Nc1c(S(=O)(=O)O)cc(Nc2ccc(Nc3nc(Cl)nc(Nc4cccc(S(=O)(=O)O)c4)n3)c(S(=O)(=O)O)c2)c2c1C(=O)c1ccccc1C2=O` [Reactive Blue 2], the inhibition (usually how much of the control response was suppressed) at 100 µM came to 100%.

Turning to `O=C1c2c(O)ccc(O)c2C(=O)c2c(NCCNCCO)ccc(NCCNCCO)c21` [Mitoxantrone], the inhibition at 100 µM came out at 53%.

Regarding `Cc1ccc(O)c(N=Nc2ccccc2)n1` [SIB 1757], the inhibition at 100 µM is 79%.

Take `Cc1ccc(C(=O)Nc2ccc(S(=O)(=O)O)c3cc(S(=O)(=O)O)cc(S(=O)(=O)O)c23)cc1NC(=O)c1cccc(NC(=O)Nc2cccc(C(=O)Nc3cc(C(=O)Nc4ccc(S(=O)(=O)O)c5cc(S(=O)(=O)O)cc(S(=O)(=O)O)c45)ccc3C)c2)c1` [Suramin hexasodium]: the inhibition at 100 µM was found to be 86%.

As to `N#C/C(=C\c1ccc(O)c(O)c1)C(=O)NCc1ccccc1` [Tyrphostin AG 490], the inhibition at 100 µM was 79%.

As for `N#C/C(=C\c1ccc(O)c(O)c1)C(=O)NCCCNC(=O)/C(C#N)=C/c1ccc(O)c(O)c1` [Tyrphostin AG 537], the inhibition at 100 µM amounted to 54%.

Consider `Cc1cccc(C#Cc2ccccc2)n1` [6-Methyl-2-(phenylethynyl)pyridine hydrochloride], for which the inhibition at 100 µM is 45%.

`NNCc1cccc(O)c1` [3-Hydroxybenzylhydrazine dihydrochloride]: the inhibition at 100 µM is 32%.

Consider `COc1cc2c(cc1OC)[C@@H](c1ccccc1)CN(C)CC2` [R(-)-SCH-12679 maleate], for which the inhibition at 100 µM is 96%.

A further assay deals with T1, SARS-CoV-2 Mac1. In words: biochemical. Particulars: 100 µM; inhibitor.
For the compound `CCC[C@H](NC(=O)[C@@H]1[C@H]2CCC[C@H]2CN1C(=O)[C@@H](NC(=O)[C@@H](NC(=O)c1cnccn1)C1CCCCC1)C(C)(C)C)C(=O)C(=O)NC1CC1` [Telaprevir (VX-950)], the %inhibition (usually how much of the control response was suppressed) came to 0%.

`C[C@H]1COc2c(N3CCN(C)CC3)c(F)cc3c(=O)c(C(=O)O)cn1c23` [Levofloxacin hydrate]: the “%inhibition” value was 0%.

For the compound `COc1cc(O)c(C(=O)Nc2nc(C(=O)NCCN(C(C)C)C(C)C)cs2)cc1OC` [Acotiamide], the “%inhibition” value is 14.33%.

Consider `CCCN[C@H]1CCc2nc(N)sc2C1` [Pramipexole], for which the “%inhibition” value worked out at 0%.

`CC(=O)Oc1ccccc1C(=O)O` [Carbasalate Calcium]: the “%inhibition” value is listed as 5.528%.

As to `CCCC(CCC)C(=O)O` [Valproic acid], the “%inhibition” value is given as 0%.

As for `CN(C)CC/C=C1/c2ccccc2Sc2ccc(Cl)cc21` [Chlorprothixene hydrochloride], the “%inhibition” value was found to be 0%.

Regarding `C[C@@H](O)[C@H]1C(=O)N2C(C(=O)O)=C(S[C@@H]3CN[C@H](CNS(N)(=O)=O)C3)[C@H](C)[C@H]12` [Doripenem Hydrate], the “%inhibition” value was determined as 0%.

As for `COc1ccccc1OCCNCC(O)COc1cccc2[nH]c3ccccc3c12` (stereo not drawn) [Carvedilol], the “%inhibition” value was 23.79%.

As to `COc1ccc2c(c1)c(CC(=O)O)c(C)n2C(=O)c1ccc(Cl)cc1` [Indometacin Sodium], the “%inhibition” value is recorded as 0%.

The same assay, now with this note: read-out: %inhibition.
With `NCc1ccccc1CC(=O)N[C@@H]1C(=O)N2C(C(=O)O)=C(CSc3nnnn3CC(=O)O)CS[C@H]12` [Ceforanide], the inhibition at 100 µM came out at 0%.

Consider `C[C@H]1O[C@@H](n2cc(F)c(=O)[nH]c2=O)[C@H](O)[C@@H]1O` [Doxifluridine], for which the inhibition at 100 µM came to 0%.

As for `CCc1cc(C(N)=S)ccn1` [Ethionamide], the inhibition at 100 µM came to 19.8%.

Take `c1ccc2c(c1)CCCC2C1=NCCN1` (stereo not drawn) [Tetrahydrozoline HCl]: the inhibition at 100 µM stood at 0%.

Regarding `C[C@@H]1CC(=O)NN=C1c1ccc(NN=C(C#N)C#N)cc1` [Levosimendan], the inhibition at 100 µM was determined as 0%.

Turning to `CCc1cccc2c3c([nH]c12)C(CC)(CC(=O)O)OCC3` (stereo not drawn) [Etodolac], the inhibition at 100 µM came to 0%.

Consider `C[N+]1(C)[C@@H]2CC[C@H]1C[C@@H](OC(=O)C(O)c1ccccc1)C2` (stereo partly drawn) [Homatropine Methylbromide], for which the inhibition at 100 µM came to 0%.

In the case of `CCC1(c2cccc(O)c2)CCCCN(C)C1` (stereo not drawn) [Meptazinol HCl], the inhibition at 100 µM was 0%.

As to `CCCC(=O)Nc1ccc(OCC(O)CNC(C)C)c(C(C)=O)c1` (stereo not drawn) [Acebutolol HCl], the inhibition at 100 µM was 0%.

Take `CC(C)C[C@H](NC(=O)[C@H](Cc1ccccc1)NC(=O)c1cnccn1)B(O)O` [Bortezomib (PS-341)]: the inhibition at 100 µM stood at 54.2%.

As for `CN(C)CCCN1c2ccccc2Sc2ccc(Cl)cc21` [Chlorpromazine HCl], the inhibition at 100 µM was determined as 0%.

With `CC#CC(=O)N1CCC[C@H]1c1nc(-c2ccc(C(=O)Nc3ccccn3)cc2)c2c(N)nccn12` [Acalabrutinib (ACP-196)], the inhibition at 100 µM worked out at 9.75%.

On to `Nc1cccc2c1CN(C1CCC(=O)NC1=O)C2=O` (stereo not drawn) [Lenalidomide (CC-5013)], for which the inhibition at 100 µM is 40.3%.

As to `C[C@@H]1O[C@@H](O[C@H]2C[C@@H](O)[C@]3(CO)[C@H]4[C@H](O)C[C@]5(C)[C@@H](C6=CC(=O)OC6)CC[C@]5(O)[C@@H]4CC[C@]3(O)C2)[C@H](O)[C@H](O)[C@H]1O` [Ouabain], the inhibition at 100 µM amounted to 0%.

For `CCCCCOC(=O)Nc1nc(=O)n([C@@H]2O[C@H](C)[C@@H](O)[C@H]2O)cc1F` [Capecitabine], the inhibition at 100 µM worked out at 6.29%.

Consider `CN(C)CCCC1(c2ccc(F)cc2)OCc2cc(C#N)ccc21` (stereo not drawn) [Citalopram HBr], for which the inhibition at 100 µM turned out to be 0%.

As for `O=C(C[S+]([O-])Cc1ccco1)NC/C=C\COc1cc(CN2CCCCC2)ccn1` (stereo not drawn) [Lafutidine], the inhibition at 100 µM was found to be 0%.

As for `C[C@]12CC[C@@H]3c4ccc(OC(=O)c5ccccc5)cc4CC[C@H]3[C@@H]1CC[C@@H]2O` [Estradiol Benzoate], the inhibition at 100 µM came to 20.5%.

Regarding `Nc1nc(CC(=O)Nc2ccc(CCNC[C@H](O)c3ccccc3)cc2)cs1` [Mirabegron], the inhibition at 100 µM stood at 0%.

For the compound `CC(C)CN(C[C@@H](O)[C@H](Cc1ccccc1)NC(=O)O[C@H]1CCOC1)S(=O)(=O)c1ccc(N)cc1` [Amprenavir], the inhibition at 100 µM came out at 0%.

With `CCCC(C(=O)OCCN(CC)CC)(c1ccccc1)c1ccccc1` [Proadifen HCl], the inhibition at 100 µM stood at 15.2%.

Take `COc1ccc(CN2CCNCC2)c(OC)c1OC` [Trimetazidine dihydrochloride]: the inhibition at 100 µM worked out at 0%.

With `CC1(C)O[C@@H]2[C@@H](CO[C@@]3(COS(N)(=O)=O)OC(C)(C)O[C@@H]23)O1` [Topiramate], the inhibition at 100 µM came to 0%.

`CC[C@H]1[C@@H](O)[C@@H]2[C@H](CC[C@]3(C)[C@@H]([C@H](C)CCC(=O)O)CC[C@@H]23)[C@@]2(C)CC[C@@H](O)C[C@@H]12` [Obeticholic Acid]: the inhibition at 100 µM was found to be 37.3%.

Turning to `C[C@]12CCC(=O)C=C1C=C[C@@H]1[C@@H]2CC[C@@]2(C)[C@H]1CC[C@@]2(O)CCC(=O)O` [Potassium Canrenoate], the inhibition at 100 µM was 0%.

Regarding `Cc1cn([C@H]2O[C@@H](CO)[C@H](O)[C@H]2F)c(=O)[nH]c1=O` [Clevudine], the inhibition at 100 µM stood at 18.3%.

On to `CC(c1cc2ccccc2s1)N(O)C(N)=O` (stereo not drawn) [Zileuton], for which the inhibition at 100 µM was found to be 0%.

Consider `CCN(C(=O)c1c(O)c2c(Cl)cccc2n(C)c1=O)c1ccccc1` [Laquinimod], for which the inhibition at 100 µM was determined as 22.6%.

For the compound `CC1=C(CC(=O)O)c2cc(F)ccc2/C1=C\c1ccc([S+](C)[O-])cc1` (stereo not drawn) [Sulindac], the inhibition at 100 µM was 4.16%.

Regarding `N#Cc1ccnc(N2C(=O)CC[C@H]2C(=O)N(c2cncc(F)c2)[C@H](C(=O)NC2CC(F)(F)C2)c2ccccc2Cl)c1` [Ivosidenib (AG-120)], the inhibition at 100 µM is 9.59%.

With `CN(C(=O)CN(CCO)CC(=O)N(C)C(C)(C)Cc1ccccc1)C(C)(C)Cc1ccccc1` [Oxethazaine], the inhibition at 100 µM turned out to be 19.2%.

For the compound `C#C[C@]1(OC(C)=O)CC[C@H]2[C@@H]3CCC4=C[C@@H](OC(C)=O)CC[C@@H]4[C@H]3CC[C@@]21C` [Ethynodiol diacetate], the inhibition at 100 µM was determined as 0%.

As for `O=C(O)c1cc(-c2ccc(F)cc2F)ccc1O` [Diflunisal], the inhibition at 100 µM stood at 0.967%.

In the case of `CC(C)(CO)[C@@H](O)C(=O)NCCCO` [D panthenol], the inhibition at 100 µM amounted to 0%.

With `CC(=O)N[C@H]1[C@H]([C@H](O)[C@H](O)CO)OC(C(=O)O)=C[C@@H]1NC(=N)N` [Zanamivir], the inhibition at 100 µM was 0%.

In the case of `CN(C)CCC(c1ccccc1)c1ccccn1` (stereo not drawn) [Pheniramine Maleate], the inhibition at 100 µM was 9.19%.

Turning to `CCCN(CCc1cccs1)[C@H]1CCc2c(O)cccc2C1` [Rotigotine], the inhibition at 100 µM is 6.99%.

On to `CN1CCC(=C2c3ccccc3CC(=O)c3sccc32)CC1` [Ketotifen Fumarate], for which the inhibition at 100 µM was found to be 0%.

`CCc1c(C)[nH]c2c1C(=O)C(CN1CCOCC1)CC2` (stereo not drawn) [Molindone hydrochloride]: the inhibition at 100 µM came out at 0%.

On to `S=P(N1CC1)(N1CC1)N1CC1` [Thiotepa], for which the inhibition at 100 µM was 21.5%.

On to `Cc1ncc([N+](=O)[O-])n1CC(C)O` (stereo not drawn) [Secnidazole], for which the inhibition at 100 µM was found to be 34.4%.

Take `C[C@]12CC[C@H]3[C@@H](CC[C@@]45O[C@@H]4C(O)=C(C#N)C[C@]35C)[C@@H]1CC[C@@H]2O` [Trilostane]: the inhibition at 100 µM is 0%.

Take `Nc1ccccc1NC(=O)c1ccc(CNc2nccc(-c3cccnc3)n2)cc1` [Mocetinostat (MGCD0103)]: the inhibition at 100 µM turned out to be 7.18%.

As to `CCOC(=O)[C@@H](N)Cc1ccc(-c2cc(O[C@H](c3ccc(Cl)cc3-n3ccc(C)n3)C(F)(F)F)nc(N)n2)cc1` [Telotristat Etiprate (LX 1606 Hippurate)], the inhibition at 100 µM was 0%.

Take `OCCN(CCO)c1nc(N2CCCCC2)c2nc(N(CCO)CCO)nc(N3CCCCC3)c2n1` [Dipyridamole]: the inhibition at 100 µM stood at 26.7%.

For `Cc1cc(C#N)cc(C)c1Oc1nc(Nc2ccc(C#N)cc2)nc(N)c1Br` [Etravirine (TMC125)], the inhibition at 100 µM stood at 5.29%.

`C[n+]1ccccc1/C=N/O` [Pralidoxime chloride]: the inhibition at 100 µM was found to be 8.15%.
